These results are taken from patent publication US20130158098A1, “Alkenyl Substituted Cycloaliphatic Compounds as Chemical Inducers of Proximity” (priority 2010, published 2013).

Structures are written as SMILES. Entries after “also recorded” stand apart in the source; their conditions may differ.

Series [1] relates to T cells isolated from spleens of C57BL/6J mice. As to the kind of experiment: Lymphocyte proliferation assay. It is filed as cell-based, mouse. The following applies: anti-CD3 and anti-CD28 stimulation, 72 hours. As to the method:
Naïve T cells were isolated from spleens of C57BL/6J mice with MACS T cell isolation kit (Miltenyi Biotec). Isolated T cells were stimulated for 72 hours at 37° C. with plate-bound monoclonal antibodies against CD3 (10 μg/ml) and CD28 (2 μg/ml) before cell count measurements.

The nature of series [2]: ABA stability in cell culture (luciferase biofunctional readout). It is filed as in vitro ADME, Chinese hamster. Here is the method: (§1) FIG. 3C provides the results of a stability test of ABA in cell culture conditions. CHO cells were pre-transfected with the activation and reporter DNA constructs for 24 hours. 100 μM ABA was then added to the culture and cells were assayed for luciferase activity after 10 hours. During the 10-hour incubation, the cell culture media were replaced with media containing freshly added ABA every 1, 2.5, 5 hour or no replacement. FIG. 4A illustrates the results of an experiment in which human serum pre-incubated ABA was used to induce luciferase transcription. ABA was incubated with pure non-heat inactivated human serum at 37° C. for indicated time period. ABA containing serum was then added to the CHO cell culture to a final 100 μM ABA concentration for 25 hours and cells were assayed for luciferase activity. The cells were pre-transfected with the activation and reporter DNA constructs for 24 hours. FIG. 4B illustrates the results of an experiment in which fetal bovine serum pre-incubated ABA was used to induce luciferase transcription. ABA was incubated with pure heat inactivated fetal bovine serum at 37° C. for indicated time period. ABA containing serum was then added to the CHO cell culture to a final 100 μM ABA concentration for 10 hours and cells were assayed for luciferase activity. The cells were pre-transfected with the activation and reporter DNA constructs for 24 hours.
(§2) In plants, ABA had been reported to be unstable due to active enzymatic degradation (Cutler, A. J. and Krochko, J. E. (1999) Formation and breakdown of ABA. Trends Plant Sci. 4, 472-478). […] The activity of residual ABA in the serum was measured by its ability to induce the transcriptional activation of the luciferase reporter in cells expressing the ABA-activator cassette. […] Using this assay, the bioavailability in mice was evaluated. […]

Series [3] deals with T1, VP16-PYLcs and Gal4 DBD-ABIcs (Arabidopsis thaliana, UniProt Q8VZS8).
T1 construct: HA (from the reverse primer); expressed in transfected cells; host or cells: CHO; also HEK 293/293T, NIH3T3, COS7, B35, Jurkat, E14, TC1, MEF
T1 sequence (Q8VZS8 33-209): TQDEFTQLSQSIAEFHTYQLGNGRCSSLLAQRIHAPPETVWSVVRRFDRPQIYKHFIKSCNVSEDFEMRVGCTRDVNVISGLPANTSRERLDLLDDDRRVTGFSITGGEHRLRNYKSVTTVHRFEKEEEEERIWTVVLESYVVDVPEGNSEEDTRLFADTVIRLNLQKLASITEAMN
T1 sequence (P49597 126-423 partner): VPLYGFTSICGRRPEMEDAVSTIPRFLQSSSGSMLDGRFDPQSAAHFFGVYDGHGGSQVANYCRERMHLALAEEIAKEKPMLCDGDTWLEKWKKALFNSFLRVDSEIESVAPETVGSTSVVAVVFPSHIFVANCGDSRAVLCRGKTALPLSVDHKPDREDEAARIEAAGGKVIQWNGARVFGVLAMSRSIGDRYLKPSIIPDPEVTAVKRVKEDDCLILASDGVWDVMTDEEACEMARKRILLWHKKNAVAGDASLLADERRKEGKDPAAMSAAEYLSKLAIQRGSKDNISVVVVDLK
The series is described as follows: ABA-induced GFP reporter activation in various cell lines. It counts as cell-based. Conditions: 100 μM, 24 h; CHO, HEK 293, Cos7, NIH3T3, TC1 cells. An excerpt: Activation construct: A fragment of PYL1 (one of PYR/PYL/RCAR members) (aa 33-209, also referred to as “PYLcs”) was linked to a transcriptional activation domain and a fragment of ABI1 (one of PP2C members) (aa 126-423, SEQ ID NO:2, also referred to as “ABIcs”) was linked to a DNA binding domain using recombinant DNA methods. In the constructs illustrated in FIG. 1 and FIG. 2, PYL1 (“PYLcs”) is fused to the VP16 activation domain and ABI1 (“ABIcs”) is fused to the Gal4 DNA binding domain. These two regulatory elements are linked by IRES and driven by the SV40 early promoter. Reporter constructs: Full length Luciferase is driven by Fos gene minimal promoter with 5 copies of Gal4 DNA binding sites immediately upstream of Fos promoter. GFP reporter is driven by IL2 minimal promoter with 5×Gal4 DNA binding sites upstream.
ABA regulated transcriptional activation is applicable to various cell lines from different origins besides CHO cells, as shown in FIG. 7. […] 100 μM of ABA was then added to the cell culture and cells were observed under fluorescence microscope for GFP expression after another 24 h.

For series [4] the following is noted: subchronic toxicity studies; cited from earlier work.
Series [5] is described as follows: ABA stability in fetal bovine serum (luciferase biofunctional readout). It is filed as in vitro ADME. The following applies: 37° C. Here is the method:
as §1, with “FIG. 4B illustrates the results of an experiment in which fetal bovine serum pre-incubated ABA was used to induce luciferase transcription. ABA was incubated with pure heat inactivated fetal bovine serum at 37° C. for indicated time period. ABA containing serum was then added to the CHO cell culture to a final 100 μM ABA concentration for 10 hours and cells were assayed for luciferase activity. The cells were pre-transfected with the activation and reporter DNA constructs for 24 hours.” left out
as §2

On to `CC1=CC(=O)CC(C)(C)C1(O)/C=C/C(C)=C/C(=O)O` (centres unmarked) [ABA, abscisic acid], for which the “effect upon proliferation induced by antigen receptor signaling” value in series [1] is listed as “No statistically significant effect; also recorded: did not have an adverse effect”. In addition, the ABA activity retained result in series [2] (after 24 hours of incubation with CHO cells) is listed as “about 60%”; in series [2] (after 48 hours of incubation with CHO cells), “around 23%”. Also, the “reduction in ability to induce transcription of luciferase” value in series [2] (cell culture media, up to 48 hours) is “no significant reduction”; in series [5] (pure fetal bovine serum, up to 48 hours) it was “no significant reduction”. In series [3], the GFP reporter expression entry is on record as “only expressed after ABA was added”. Further, in series [4], the “no observable adverse effect level (NOAEL)” value is 20,000 mg/kg per day. Also, the “stability in fetal calf serum” value in series [5] (pure heat inactivated fetal bovine serum) was “stable”.
